Assay results from patent publication US5405843A, “Quinoline derivatives” (Mitsui Toatsu Chemicals, Incorporated, priority 1988, dated 1995).

What was measured:
[1] = system: Vincristine-resistant strain P388/VCR cells of mouse leukemia P388 cells; assay: Potentiating effect on vincristine in mice having vincristine-resistant mouse leukemia (survival); format: in vivo, mouse (female CDFI mice); settings: peritoneal, once a day for 5 days; for T/C (rate of life prolongation): control = 100
[2] = system: Adriamycin resistant strain 2780 AD cells of human ovarian cancer A2780 cells; assay: Potentiating effect on incorporation of 3H-vincristine into adriamycin-resistant cancer cells; format: cell-based; settings: 20 nM 3H-vincristine; for activity at 1 µg/mL / activity at 10 µg/mL: Homo sapiens, 2780AD, 2 h, control = 100, read-out: 3H-vincristine accumulation; for activity at 10 µg/mL: compound 10 μg/ml
Method: Potentiating Effect of the Compounds on Incorporation of Anticancer Drugs into Drug-resistant Cancer Cells
Adriamycin resistant strain 2780 AD cells of human ovarian cancer A2780 cells (A. M. Rogan et al., Science 224, 994-996, 1984) were suspended at a concentration of 1×10^6 /ml in RPMI-1640 medium supplemented with 5% fetal calf serum, and 1 ml of the cancer cell suspension was dispensed into each well of a multi-well culture plate (24 wells, […] in diameter) and then incubated at 37° C. in an atmosphere of 5% CO2. After 24 hours incubation, the medium in each well was replaced by 0.5 ml of RPMI-1640 medium supplemented containing 20 nM ^3 H-vincristine (1×10^4 dpm/pmol), 5% fetal calf serum and 10 mM Hepes buffer. Five microliters of a solution of the compound to be tested, which had been dissolved in DMSO and diluted with […] (at a concentration of 1.0 microgram/ml or 10.0 micrograms/ml), was added to each well and the incubation was continued at 37° C. in 5% CO2 for 2 hours. The resultant cells were washed in cold saline-phosphate buffer. In each well was added 0.5 ml of 0.2N NaOH, and the resulting cell suspension in each well was independently transferred into a vial and then heated in a water bath at 56° C. for 30-60 minutes to dissolve the cells. After adding 4 ml of acid aquazole 2, the amount of ^3 H-vincristine incorporated into the cells was determined by a fluid scintillation counter.

[3] = compound 30 mg/kg + vincristine 100 ug/kg
[4] = compound 10 mg/kg + vincristine 100 ug/kg

| SMILES | Average surviving period [1, 3] | T/C (rate of life prolongation) [1, 3] | activity at 1 µg/mL ([2]; compound 1 μg/ml) | activity at 10 µg/mL [2] | Average surviving period [1, 4] | T/C (rate of life prolongation) [1, 4] | 3H-vincristine accumulation ([2]; compound 1 μg/ml, 2 hours, control = 100, 120 min) |
| --- | --- | --- | --- | --- | --- | --- | --- |
| COc1ccc2c(OCC(O)CN3CCN(C(=O)C(c4ccccc4)c4ccccc4)CC3)cccc2n1 (stereo not drawn) [Example 8, 5-[3-(4-(2,2-Diphenylacetyl)piperazine-1-yl) -2-hydroxypropoxy]-2-methoxyquinoline] | 12.2 ± 0.6 days | 115% | 394% | 863% | – | – | – |
| OC(COc1cccc2nc(Cl)ccc12)CN1CCN(C2c3ccccc3CCc3ccccc32)CC1 (stereo not drawn) [Example 18, 5-[3-(4-(5-Dibenzosuberanyl)piperazine-1-yl)-2-hydroxypropoxy]-2-chloroquinoline] | 13.8 ± 0.4 days | 131% | 743% | 761% | – | – | – |
| CN(CCN(C)C(c1ccccc1)c1ccccc1)CC(O)COc1cccc2ncccc12 (stereo not drawn) [Example 3, 5-(3-[N-(2-(N-Diphenylmethyl-N-methylamino)ethyl)-N-methylamino]-2-hydroxypropoxy)quinoline] | 11.0 ± 0.6 days | 100% | 731% | 774% | – | – | – |
| OC(COc1cccc2ncccc12)CN1CCN(CC(c2ccccc2)c2ccccc2)CC1 (stereo not drawn) [Example 17, 5-[3-(4-(2,2-Diphenylethyl)piperazine-1-yl)-2-hydroxypropoxy]quinoline] | 11.8 ± 1.1 days | 115% | 730% | – | – | – | – |
| c1ccc(C(c2ccccc2)N2CCN(CCCOc3cccc4ncccc34)CC2)cc1 [Example 32, 5-[3-(4-Diphenylmethylpiperazine-1-yl)propoxy]quinoline] | 11.3 ± 0.4 days | 110% | 816% | – | – | – | – |
| c1ccc(C(=C2CCN(CCCOc3cccc4ncccc34)CC2)c2ccccc2)cc1 [Example 84, 5-[3-(4-(Diphenylmethylene)piperidine-1-yl)propoxy]quinoline] | 13.0 ± 0.7 days | 121% | 159% | 878% | – | – | – |
| OC(CNc1cccc2ncccc12)CN1CCN(C(c2ccccc2)c2ccccc2)CC1 (stereo not drawn) [Example 27, 5-[3-(4-Diphenylmethylpiperazine-1-yl)-2-hydroxypropylamino]quinoline] | 12.3 ± 0.3 days | 119% | – | – | – | – | – |
| OC(COc1cccc2ncccc12)CN1CCN(C2c3ccccc3C=Cc3ccccc32)CC1 (stereo not drawn) [Example 20, 5-[3-(4-(5-Dibenzosuberenyl)piperazine-1-yl)-2-hydroxypropoxy]quinoline] | 13.7 ± 1.0 days | 133% | 794% | – | – | – | – |
| Cc1cc(C)c2c(OCC(O)CN3CCN(C(=O)N4c5ccccc5CCc5ccccc54)CC3)cccc2n1 (stereo not drawn) [Example 61, 2,4-Dimethyl-5-[3-(4-(iminodibenzyl-5-carbonyl)piperazine-1-yl)-2-hydroxypropoxy]quinoline] | 11.5 ± 0.3 days | 108% | 519% | 602% | – | – | – |
| OC(COc1cccc2cnccc12)CN1CCN(C2c3ccccc3CCc3ccccc32)CC1 (stereo not drawn) [Example 44, 5-[3-(4-(Dibenzosuberane-5-yl)piperazine-1-yl)-2-hydroxypropoxy]isoquinoline] | 13.8 ± 1.0 days | 123% | 636% | 934% | 12.5 ± 0.0 days | 112% | – |
| CN(CCCN1c2ccccc2CCc2ccccc21)CC(O)COc1cccc2ncccc12 (stereo not drawn) [Example 82, 5-[3-(N-Methyl-N-(3-(5H-10,11-dihydrodibenzo(b,f)-azepin-5-yl)propyl)amino]-2-hydroxypropoxy]quinoline] | 11.2 ± 1.4 days | 105% | 667% | – | – | – | – |
| O=C(CCN1CCN(C2c3ccccc3CCc3ccccc32)CC1)Nc1cccc2ncccc12 [Example 36] | 12.6 ± 0.9 days | 122% | 821% | 716% | – | – | – |
| O=C(N1CCN(CC(O)COc2cccc3ncccc23)CC1)N1c2ccccc2CCc2ccccc21 (stereo not drawn) [Example 60, 5-[3-(4-(Iminodibenzyl-5-carbonyl)piperazine-1-yl)-2-hydroxypropoxy]quinoline] | 12.4 ± 0.7 days | 117% | 643% | 760% | – | – | – |
| Cc1cc(C)c2c(OCC(O)CN3CCN(C4c5ccccc5COc5ccccc54)CC3)cccc2n1 (stereo not drawn) [Example 21, 2,4-Dimethyl-5-[3-(4-(6,11-dihydrodibenzo[b,e]oxepine-11-yl)piperazine-1-yl)-2-hydroxypropoxy]quinoline] | 12.5 ± 0.6 days | 121% | 727% | 745% | – | – | – |
| O=C(C(c1ccccc1)c1ccccc1)N1CCN(CC(O)COc2cccc3ncccc23)CC1 (stereo not drawn) [Example 16, 5-[3-(4-(2,2-Diphenylacetyl)piperazine-1-yl)-2-hydroxypropoxy]quinoline] | 13.9 ± 1.4 days | 132% | 850% | 982% | – | – | – |
| Cc1cc(C)c2c(OCC(O)CN3CCN(C4c5ccccc5CCc5ccccc54)CC3)cccc2n1 (stereo not drawn) [Example 22, 5-[3-(4-(Dibenzosuberane-5-yl)piperazine-1-yl)-2-hydroxypropoxy]-2,4-dimethylquinoline] | 13.9 ± 0.4 days | 132% | 723% | 743% | – | – | – |
| OC(COc1cccc2ncccc12)CN1CCC(C2(O)c3ccccc3CCc3ccccc32)CC1 (stereo not drawn) [Example 78, 5-[2-Hyroxy-3-(4-(5-hydroxydibenzosuberane-5-yl)piperidine-1-yl)propoxy]quinoline] | 12.8 ± 0.8 days | 120% | 943% | – | – | – | – |
| OC(COc1cccc2ncccc12)CN1CCN(C(c2ccc(F)cc2)c2ccc(F)cc2)CC1 (stereo not drawn) [Example 57, 5-(3-[4-(Bis(4-fluorophenyl)methyl)piperazine-1-yl]-2-hydroxypropoxy)quinoline] | 13.1 ± 0.4 days | 124% | 572% | 732% | – | – | – |
| OC(COc1cccc2ncccc12)CN1CCC(=C2c3ccccc3C=Cc3ccccc32)CC1 (stereo not drawn) [Example 77, 5-[3-(4-(Dibenzosuberene-5-ylidene)piperidine-1-yl)2-hydroxypropoxy]quinoline] | 13.8 ± 1.2 days | 129% | – | – | – | – | – |
| OC(COc1cccc2ncccc12)CN1CCN(C2c3ccccc3COc3ccccc32)CC1 (stereo not drawn) [Example 6, 5-[3-(4-(6,11-Dihydrodibenzo[b,e]oxepine-11-yl)piperazine-1-yl)-2-hydroxypropoxy]quinoline] | 13.4 ± 0.7 days | 128% | – | – | – | – | – |
| COc1ccc(OCC(O)CN2CCN(C(c3ccccc3)c3ccccc3)CC2)c2cccnc12 (stereo not drawn) [Example 25, 5-[3-(4-Diphenylmethylpiperazine-1-yl)-2-hydroxypropoxy]-8-methoxyquinoline] | – | – | 858% | – | – | – | – |
| OC(COc1cccc2ncccc12)CN1CCN(C(c2ccccc2)c2ccncc2)CC1 (stereo not drawn) [Example 52, 5-(3-[4-((4-Pyridyl) -phenylmethyl)piperazine-1-yl]-2-hydroxypropoxy)quinoline] | – | – | 379% | 910% | – | – | – |
| CN(CC(O)CN1CCN(C(c2ccccc2)c2ccccc2)CC1)c1cccc2ncccc12 (stereo not drawn) [Example 30, N-[3-(4-Diphenylmethylpiperazine-1-yl)-2-hydroxypropyl]-N-methyl-5-quinolineamine] | – | – | 597% | – | – | – | – |
| OC(CNCCC(c1ccccc1)c1ccccc1)COc1cccc2ncccc12 (stereo not drawn) [Example 69, 5-[3-(3,3-Diphenylpropylamino)-2-hydroxypropoxy]quinoline] | – | – | 738% | 941% | – | – | – |
| OC(CSc1cccc2ncccc12)CN1CCN(C(c2ccccc2)c2ccccc2)CC1 (stereo not drawn) [Example 31, 5-[3-(4-Diphenylmethylpiperazine-1-yl)-2-hydroxypropylthio]quinoline] | – | – | – | 799% | – | – | 428% |
| OC(COc1nccc2ccccc12)CN1CCN(C(c2ccccc2)c2ccccc2)CC1 (stereo not drawn) [Example 48, 1-[3-(4-Diphenylmethylpiperazine-1-yl)-2-hydroxypropoxy]isoquinoline] | – | – | 215% | 798% | – | – | – |
